Reference: patent publication US20100292185A1, “BETA-LACTAMASE INHIBITORS” (priority 2009, published 2010)
pIC50: −log10 of the molar value. Structures can show the parent of a compound that is named as a salt.

Key:
[1] = system: E. coli expressing the Class A ESBL SHV-5; assay: In vitro antibacterial assay of β-lactamase inhibition (broth microdilution MIC), E. coli SHV-5; type: cell-based; conditions: for MIC: Escherichia coli, read-out: MIC alone, E. coli SHV-5
Description: (§1) To determine the ability of test compounds to potentiate the inhibition of the growth of bacterial strains producing beta-lactamase enzymes, classic cell based screening assays were employed. Five bacteria strains producing beta-lactamase enzymes were used: K. pneumoniae expressing the Class A Extended Spectrum Beta-Lactamase (ESBL) CTX-M-15, E. coli expressing the Class A ESBL SHV-5, E. cloacae expressing the Class C P99+, K. pneumoniae expressing the Class A carbapenemase KPC-2, and P. aeruginosa expressing the Class B metallo β-lactamase VIM-2. In order to evaluate the ability of test compounds to inhibit beta-lactamase activity, Applicants used a modification of the broth microdilution assay. The assay was conducted in Cation Adjusted Mueller Hinton Broth (CAMHB, BD # 212322, BD Diagnostic Systems, Sparks, Md.). Bacteria strains were grown for 3-5 hours in CAMBH broth. All five strains were grown in presence of 50 μg/mL ampicillin to ensure resistance is maintained. In the meantime, test compounds were diluted in DMSO to a 0.1 mg/mL stock. The compounds were added to a microtiter plate and were diluted in 2-fold serial dilutions in CAMHB in a final concentration range of 8 μg/mL to 0.015 μg/ml. […] Each of these compound plates are made in quadruplicate, one for each bacteria strain. In addition to the titration of test compounds the MICs of a panel of cephalosporins is also tested to ensure the strains are behaving consistently from test to test. Once the test compound and cephalosporin are added the plates can be inoculated. Inocula are conducted according to CLSI broth microdilution method. After inoculation the plates are incubated for 16-20 hours at 37° C. then the Minimal Inhibitory Concentration (MIC) of the test compound is determined visually.
(§2) Using the methodology described above, examples of the current invention were evaluated for their ability to inhibit the growth of β-lactamase producing bacteria in the presence of a β-lactam antibiotic.

[2] = system: K. pneumoniae expressing the Class A Extended Spectrum Beta-Lactamase (ESBL) CTX-M-15; assay: In vitro antibacterial assay of β-lactamase inhibition (broth microdilution MIC), K. pneumoniae CTX-M-15; type: cell-based; conditions: for MIC: Klebsiella pneumoniae, read-out: MIC alone, K. pneumoniae CTX-M-15
Description: as §1, §2

[3] = system: E. cloacae expressing the Class C P99+; assay: In vitro antibacterial assay of β-lactamase inhibition (broth microdilution MIC), E. cloacae P99+; type: cell-based; conditions: for MIC: Enterobacter cloacae, read-out: MIC alone, E. cloacae P99+ AmpC
Description: as §1, §2

[4] = system: K. pneumoniae expressing the Class A carbapenemase KPC-2; assay: microbe, parasite or virus in culture; type: cell-based; conditions: for MIC: Klebsiella pneumoniae, read-out: MIC alone, K. pneumoniae KPC-2
Description: as §1, §2

[5] = system: P. aeruginosa expressing the Class B metallo β-lactamase VIM-2; assay: In vitro antibacterial assay of β-lactamase inhibition (broth microdilution MIC), P. aeruginosa VIM-2; type: cell-based; conditions: for MIC: Pseudomonas aeruginosa, read-out: MIC alone, P. aeruginosa VIM-2
Description: as §1, §2

SHV-5 β-lactamase = biological target: T1, SHV-5 β-lactamase (Klebsiella pneumoniae, UniProt P0A3M1); assay: β-lactamase enzyme inhibition assay (nitrocefin substrate), SHV-5; type: biochemical
T1 construct: expressed as native untagged proteins; made in house; host or cells: E. coli BL21(DE3)
T1 sequence (P0A3M1 22-286): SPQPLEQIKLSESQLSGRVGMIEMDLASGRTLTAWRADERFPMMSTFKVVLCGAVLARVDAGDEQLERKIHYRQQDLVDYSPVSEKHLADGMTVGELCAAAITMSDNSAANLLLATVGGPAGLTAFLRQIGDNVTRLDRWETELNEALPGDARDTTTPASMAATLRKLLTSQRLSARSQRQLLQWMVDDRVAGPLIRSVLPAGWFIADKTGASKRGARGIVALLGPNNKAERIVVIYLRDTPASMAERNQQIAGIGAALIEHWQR
Protocol: (§3) Isolation of β-lactamases. For SHV-5, p99 AmpC, KPC-2 and CTX-M15 β-lactamases, E. coli BL21(DE3) bacterial cells carrying expression plasmids (expressed as native untagged proteins) for the individual β-lactamases were grown in 1 L of Superbroth (Teknova Inc. Hollister, Calif.) supplemented with 100 μg/ml kanamycin and 1×5052 (0.5% glycerol, 0.05% glucose and 0.2% α-lactose) at 35° C. for 18-20 hours. Cells were harvested by centrifugation (4,000×g, 4° C., 20 min), and resuspended in 50 ml of 10 mM HEPES pH 7.5 (1/20 of the initial volume). The cells were lysed by sonication (5 pulses of 45 seconds) at 45 W on ice. The lysates were clarified by centrifugation at 10,000×g for 40 minutes at 4° C. Samples were diluted 5-fold in 50 mM sodium acetate pH 5.0, stored overnight at 4° C., after which they were centrifuged at 10,000×g for 30 minutes to clarify, and filtered through 0.45 μm filters. The samples were loaded onto a 5 ml Capto S sepharose cation exchange column (GE Healthcare) pre-equilibrated with 50 mM sodium acetate pH 5.0. The column was washed with 5 column volumes of 50 mM sodium acetate pH 5.0 to wash out unbound protein and a linear gradient of NaCl (0 to 500 mM) was used to elute the protein (over 16 CV) from the column. Fractions were assayed for β-lactamase activity using Centa (Calbiochem, Gibbstown, N.J.) as a reporter β-lactamase substrate for activity in the isolated fractions. Active fractions were pooled, concentrated and further purified by gel filtration chromatography on a Superdex 75 prep grade gel filtration column (GE Healthcare, Piscataway, N.J.) pre-equilibrated in 50 mM Hepes pH 7.5, 150 mM NaCl. Active fractions were pooled concentrated, quantitated by BCA protein determination (Thermo Scientific, Rockford, Ill.), and frozen at −80° C. in 20% glycerol until use.
(§4) β-lactamase Inhibition. To determine the level of inhibition of β-lactamase enzymes, compounds were diluted in PBS at pH 7.0 to yield concentrations between 100 and 0.005 μM in microtiter plates. An equal volume of diluted enzyme stock was added, and the plates were incubated at 37° C. for 10 min. Nitrocefin solution was then dispensed as substrate into each well at a final concentration of 100 μM, and the plates were immediately read with the kinetic program at 486 nm for 10 min on the SPECTRAMAX® Plus^384 (high-throughput microplate spectrophotometer; Molecular Devices Corp., Sunnyvale, Calif.). Maximum rates of metabolism were then compared to those in control wells (without inhibitors), and percentages of enzyme inhibition were calculated for each concentration of inhibitor. The concentration of inhibitor needed to reduce the initial rate of hydrolysis of substrate by 50% (IC50) was calculated as the residual activity of β-lactamase at 486 nm using the SoftMax Pro 5.0 software (Molecular Devices Corp.).
(§5) Using the methodology described above, examples of the current invention were evaluated for their ability to inhibit β-lactamase enzymes. The results of these assays are summarized in Table 2 for representative enzymes across different subtypes (note SHV-5 and CTXM-15 exemplify different subclasses of Ambler Class A Extended Spectrum Beta Lactamases, KPC-2 exemplifies Class A carbapenemases, P99 represents chromosomal Class C AmpC, VIM-2 exemplifies subclass B1 of metallo-β-lactamases, and OXA-23 represents chromosome-encoded Class D oxacillin-hydrolyzing β-lactamases), NT=not tested.

CTX-M15 β-lactamase = biological target: T2, CTX-M15 β-lactamase (Escherichia coli, UniProt Q9EXV5); assay: β-lactamase enzyme inhibition assay (nitrocefin substrate), CTXM-15; type: biochemical
T2 construct: expressed as native untagged proteins; made in house; host or cells: E. coli BL21(DE3)
T2 sequence (Q9EXV5 entry or part of it): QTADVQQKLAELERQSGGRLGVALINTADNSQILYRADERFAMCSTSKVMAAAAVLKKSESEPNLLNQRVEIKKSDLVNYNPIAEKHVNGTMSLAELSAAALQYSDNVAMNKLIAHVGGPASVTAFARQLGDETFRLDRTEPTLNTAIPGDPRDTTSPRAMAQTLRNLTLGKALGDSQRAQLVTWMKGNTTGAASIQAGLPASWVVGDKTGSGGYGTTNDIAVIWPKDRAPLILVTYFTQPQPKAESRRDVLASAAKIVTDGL
Protocol: as §3, §4, §5

p99 AmpC β-lactamase = biological target: T3, p99 AmpC β-lactamase (Enterobacter cloacae, UniProt P05364); assay: β-lactamase enzyme inhibition assay (nitrocefin substrate), P99 AmpC; type: biochemical; conditions: nitrocefin 100 μM, 37° C., PBS pH 7.0; read-out: P99 AmpC IC50
T3 construct: expressed as native untagged proteins; made in house; host or cells: E. coli BL21(DE3)
T3 sequence (P05364 21-381): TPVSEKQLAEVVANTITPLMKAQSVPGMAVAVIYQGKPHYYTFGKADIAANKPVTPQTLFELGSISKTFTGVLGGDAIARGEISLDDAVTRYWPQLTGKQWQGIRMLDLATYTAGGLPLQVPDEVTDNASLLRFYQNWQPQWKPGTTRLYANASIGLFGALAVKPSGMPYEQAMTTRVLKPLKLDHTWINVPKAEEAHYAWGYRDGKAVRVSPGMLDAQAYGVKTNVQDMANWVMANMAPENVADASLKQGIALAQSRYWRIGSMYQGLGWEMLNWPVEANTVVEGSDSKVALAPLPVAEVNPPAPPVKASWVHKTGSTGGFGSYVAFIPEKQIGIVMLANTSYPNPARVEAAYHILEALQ
Protocol: as §3, §4, §5

KPC-2 β-lactamase = biological target: T4, KPC-2 β-lactamase (Klebsiella pneumoniae, UniProt Q9F663); assay: β-lactamase enzyme inhibition assay (nitrocefin substrate), KPC-2; type: biochemical
T4 construct: expressed as native untagged proteins; made in house; host or cells: E. coli BL21(DE3)
T4 sequence (Q9F663 25-293 limits assumed): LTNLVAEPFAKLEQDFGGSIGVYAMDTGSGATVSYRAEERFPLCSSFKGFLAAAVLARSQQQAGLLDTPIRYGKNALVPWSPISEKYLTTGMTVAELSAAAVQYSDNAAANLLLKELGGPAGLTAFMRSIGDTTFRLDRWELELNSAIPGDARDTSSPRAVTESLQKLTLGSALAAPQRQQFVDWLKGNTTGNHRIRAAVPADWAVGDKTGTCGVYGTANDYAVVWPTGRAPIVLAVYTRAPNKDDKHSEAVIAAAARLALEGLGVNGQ
Protocol: as §3, §4, §5

[6] = in presence of Ceftazidime 8 μg/ml (Examples 1-56)
[7] = in presence of Piperacillin 16 μg/ml (Examples 57-65)

| Structure (SMILES) | pIC50 (SHV-5 β-lactamase) | pIC50 (p99 AmpC β-lactamase) | pIC50 (KPC-2 β-lactamase) | MIC of example compound, E. coli SHV-5 [1, 7] [µg/mL] | MIC of example compound, K. pneumoniae CTX-M-15 [2, 7] [µg/mL] | MIC of example compound, E. cloacae P99+ [3, 7] [µg/mL] | MIC of example compound, K. pneumoniae KPC-2 [4, 7] [µg/mL] | further results |
| --- | --- | --- | --- | --- | --- | --- | --- | --- |
| CC(C)(O/N=C(\C(=O)N[C@@H]1C(=O)N2C(C(=O)[O-])=C(C[n+]3ccccc3)CS[C@H]12)c1csc(N)n1)C(=O)O [Ceftazidime, reference compound] | – | – | – | – | – | – | – | MIC [1]: > 1020 µg/mL; MIC [2]: 128 µg/mL; MIC [3]: 128 µg/mL; MIC [4]: 32 µg/mL; MIC [5]: 128 µg/mL |
| Cl.O=C(N[C@@H](Cc1cccc(C(=O)O)c1O)B(O)O)c1ccc(CNCc2cccnc2)cc1 [Example 17, (1R)-[4-(pyridin-3-ylmethylaminomethyl]-benzoylamino-(3-carboxy-2-hydroxy)benzyl-methylboronic acid hydrochloride] | < 6.00 | 8.10 | 7.82 | – | – | – | – | pIC50 (CTX-M15 β-lactamase): 8.30 |
| Cl.O=C(N[C@@H](Cc1cccc(C(=O)O)c1O)B(O)O)c1ccc(CNCc2cccnc2)cc1 [Example 17] | – | – | – | – | – | – | – | MIC of example compound, E. coli SHV-5 [1, 6]: >8 µg/mL; MIC of example compound, K. pneumoniae CTX-M-15 [2, 6]: 2 µg/mL; MIC of example compound, E. cloacae P99+ [3, 6]: 1 µg/mL; MIC of example compound, K. pneumoniae KPC-2 [4, 6]: 0.12 µg/mL; MIC of example compound, P. aeruginosa VIM-2 ([5]; in presence of Ceftazidime 16 μg/mL (Examples 1-56)): >8 µg/mL |
| N=C(N)NCCC[C@H](NCc1ccc(CC(=O)N[C@@H](Cc2cccc(C(=O)O)c2O)B(O)O)cc1)C(=O)O [Example 59, (1R)-1-(2-{4-[(1-Carboxy-4-guanidino-butylamino)-methyl]-phenyl}-acetylamino)-1-[(3-carboxy-2-hydroxy)benzyl]-methylboronic acid formate] | 8.70 | 8.22 | 7.82 | 0.5 | >16 | 2 | 1 | – |
| O=C(Cc1ccc(CNC(CO)C(=O)O)cc1)N[C@@H](Cc1cccc(C(=O)O)c1O)B(O)O (stereo partly drawn) [Example 60, (1R)-1-(2-{4-[(1-Carboxy-2-hydroxy-ethylamino)-methyl]-phenyl}-acetylamino)-1-[(3-carboxy-2-hydroxy)benzyl]-methylboronic acid formate] | 8.70 | 8.05 | 7.96 | 1 | >16 | 2 | 0.5 | – |
| N=C(N)NCc1ccc(CC(=O)N[C@@H](Cc2cccc(C(=O)O)c2O)B(O)O)cc1 [Example 61, (1R)-1-{2-[4-(1-guanidinomethyl)-phenyl]-acetylamino}-1-[(3-carboxy-2-hydroxy)benzyl]-methylboronic acid formate salt] | 8.70 | 7.96 | 7.85 | 0.25 | 16 | 0.25 | 0.25 | pIC50 (CTX-M15 β-lactamase): 8.40 |
| N=C(N)c1ccc(CC(=O)N[C@@H](Cc2cccc(C(=O)O)c2O)B(O)O)cc1 [Example 62, (1R)-1-{2-[4-(Carbamimidoyl)-phenyl]-acetylamino}-1-[(3-carboxy-2-hydroxy)benzyl]-methylboronic acid formate salt] | 8.70 | 8.52 | 8.05 | 0.125 | >128 | 0.125 | 0.125 | – |
| N=C(N)NCc1cccc(CC(=O)N[C@@H](Cc2cccc(C(=O)O)c2O)B(O)O)c1 [Example 65, (1R)-1-{2-[3-(1-guanidinomethyl)-phenyl]-acetylamino}-1-[(3-carboxy-2-hydroxy)benzyl]-methylboronic acid formate salt] | – | – | – | 0.25 | >16 | 0.25 | 0.5 | – |
| CCN1CCN(C(=O)N[C@@H](C(=O)N[C@@H]2C(=O)N3[C@@H]2SC(C)(C)[C@@H]3C(=O)O)c2ccccc2)C(=O)C1=O [Pip, Piperacillin, reference compound] | – | – | – | – | – | – | – | MIC [1]: > 128 µg/mL; MIC [2]: > 128 µg/mL; MIC [3]: > 128 µg/mL; MIC [4]: > 128 µg/mL; MIC [5]: > 128 µg/mL |
